Source: US20110027809A1, “METHOD FOR EVALUATION OF DEGREE OF MALIGNANCY OF TUMOR CELL” (priority 2008, published 2011)

Columns and labels:
tumor cell line (A-431) = settings: A-431, highest expression level of HER1; Non-Patent Document 1; cited from earlier work
[1] = tested on: RTKs in cell membrane fraction MDA-MB-468; assay: RTK activity of cell membrane fraction with or without inhibitor (ELISA, Biotin-poly(Glu, Tyr) substrate); assay type: biochemical; settings: treatment solution containing 100 μM inhibitor, 100 μM ATP, FIG. 1
Method: (§1) Cultured cells (13 types: A-431, KF, MDA-MB-468, RMUG-L, BT-474, ES2, MDA-MB-453, SK-Br-3, SNG-S, K-562, MDA-MB-231, MCF7 and T47D) were respectively mixed with 1 ml of a homogenizing reagent (containing 20 mM HEPES pH7.4, 0.2% protease inhibitors (PI), 10% glycerol, 200 μM Na3VO4 and 50 mM NaF), pressurized with a pestle to break cell membrane and cell homogenate was obtained. The obtained cell homogenate was centrifuged (20,000×g, 20 min.), the supernatant was discarded and the pellet was collected. The collected pellet was added with a solubilizing solution (containing 20 mM HEPES pH7.4, 1% NP40, 0.2% PI, 10% glycerol, 200 μM Na3VO4 and 50 mM NaF), mixed, pressurized with a pestle to solubilize cell membrane and centrifuged (20,000×g, 20 min.). The supernatant was then collected as the cell membrane fraction, adjusted its total protein amount to 40 μg/ml and used for the following experiments.
(§2) The ELISA plate used was the avidin coated plate (NeutrAvidin HBC White 96-Well Plates With SuperBlock Blocking Buffer; PIERCE). Each well of the plate was washed three times with TBS-T (containing 25 mM Tris, 150 mM NaCl and 0.05% Tween-20). A substrate solution 1 (50 μl; TBS containing 1 μg/ml Biotin-poly(Glu, Tyr) substrate) was added to each well and the plate was incubated with gentle shaking at 25° C. for 1.5 hours. After the incubation, each well was washed three times with TBS-T. Thus, Biotin-poly(Glu, Tyr) substrate was bound to the surface of each well of the ELISA plate. This ELISA plate was used for the following enzyme reaction.
(§3) The cell membrane fractions (25 μl each) of the above tumor cells were placed in seven tubes, respectively. To six tubes were added 25 μl of a treatment solution (20 mM HEPES pH7.4, 20 mM MnCl2, 2 mM DTT, 1% NP40, 10% glycerol, 200 μM Na3VO4, 50 mM NaF, 100 μM ATP, 400 μM PPI (BIOMOL)) containing 100 μM PD153035, 25 μl of treatment solution containing 100 μM AG1478, 25 μl of the treatment solution containing 100 μM 4557W, 25 μl of the treatment solution containing 100 μM Src inhibitor, 25 μl of the treatment solution containing 100 μM PDGFR inhibitor and 25 μl of the treatment solution containing 100 μM VEGFR inhibitor, respectively, to contact the cell membrane fractions with RTK activity inhibitors. To the remained tube was added with 25 μl of the treatment solution without inhibitors. The thus obtained solutions are called as reaction solutions. In order to suppress the enzyme activity of RTKs, the above procedures were carried out at below 4° C.
(§4) Each reaction solution (50 μl was distributed to each well of the ELISA plate prepared as above, and the plate was incubated at 25° C. for about 30 minutes to bring the cell membrane fractions having contacted or not with RTK activity inhibitors into contact with the substrate. After the incubation, each well was added with 100 μl of a reaction termination solution (TBS-T containing 5 mM EDTA) and washed three times with TBS-T. Each well was then washed with 300 μl of StartingBlock T20 (TBS) Blocking Buffer (PIERCE). After washing, each well was added with 100 μl of HRP-labeled primary antibody (p-Tyr (PY20), sc-508 HRP (SANTA Cruz Biotechnology), an antibody recognizing a phosphorylated tyrosine residue) diluted to 1000-fold with StartingBlock T20 (TBS) Blocking Buffer, and the plate was incubated with gentle shaking at 25° C. for about 1.5 hours. After the incubation, wells were washed for five times with TBS-T. After washing, each well was added with 150 μl of chemiluminescent substrate (SuperSignal ELISA PICO (PIERCE)), and after 5 min., luminescence was measured with a microplate reader GENios (TECAN) to measure RTK activities. […]

[2] = tested on: RTKs in cell membrane fraction MCF7; assay: as above; assay type: biochemical; settings: treatment solution containing 100 μM inhibitor, 100 μM ATP, FIG. 2
Method: as §1, §2, §3, §4

[3] = tested on: RTKs in cell membrane fraction BT-474; assay: as above; assay type: biochemical; settings: treatment solution containing 100 μM inhibitor, 100 μM ATP, FIG. 1
Method: as §1, §2, §3, §4

[4] = tested on: RTKs in cell membrane fraction MDA-MB-231; assay: as above; assay type: biochemical; settings: treatment solution containing 100 μM inhibitor, 100 μM ATP, FIG. 2
Method: as §1, §2, §3, §4

BT-474 cells = assay: VEGF secretion ability (Human VEGF Quantikine ELISA); assay type: cell-based; settings: 1 μM inhibitor, 4 hours, FIG. 6
Method: (§5) The VEGF secretion ability was measured as follows. Cultured cells of MDA-MB-468, BT-474, MCF7 and MDA-MB-231 were seeded in a 6-well plate (Corning) at 1×10^6 cells/well and cultured at 37° C. in a medium (10% FBS). After 24 hours, the medium is changed to a serum free medium and the culture was continued for further 18 hours. The serum free medium used was DMEM/F12 (SIGMA) or RPMI1640 (SIGMA) supplemented with the antibiotics Antibiotic-Antimycotic (100×) (GIBCO). Thereafter, the medium was changed to the medium (10% FBS) containing 1 μM inhibitor in DMSO (PD153035, AG1478, PDGFR inhibitor or VEGFR inhibitor) and the culture was continued for additional 4 hours. The cell supernatant was then collected. The amount of VEGFs in the supernatant was measured with Human VEGF Quantikine ELISA Kit (R&D system) according to the attached protocol.
(§6) The control experiment was carried out with DMSO only instead of the inhibitor.
(§7) In FIG. 6, the y-axis corresponds to VEGF concentration (pg/ml), which reflects the amount of VEGFs secreted from the cells. In FIG. 6, “DMSO”, “PD”, “AG”, “PDGFR” and “VEGFR” represent the results of control, and the cells treated with PD153035, AG1478, PDGFR inhibitor and VEGFR inhibitor, respectively.

MDA-MB-468 cells = assay: as above; assay type: cell-based; settings: 1 μM inhibitor, 4 hours, FIG. 6
Method: as §5, §6, §7

MDA-MB-468 tumor = assay: Tumor mass of MDA-MB-468 tumor in mice; assay type: in vivo, mice (BALB/c nu/nu); settings: 30 mg/kg/day injected for 7 days, Days 3, 5, 8 relative to Day 1, FIG. 4
Method: MDA-MB-468 cells were cultured in a medium (DMEM-F12 (Sigma) containing 10% FBS (Hyclone)) until cells become 80% confluent in a 225-cm^2 flask. The obtained cultured cells were suspended in 100 μl of DMEM-F12 at about 1×10^7 cells to obtain a MDA-MB-468 cell suspension.
Fat pad of 10-week-old female mice (BALB/c nu/nu) was injected with 100 μl of the MDA-MB-468 cell suspension. After 14 days, the growth of tumor in mice was confirmed. Thus, tumor was allowed to be formed in three mice.
At 14 days after the injection of the MDA-MB-468 cell suspension, an inhibitor solution was injected to the mouse having tumor. Specifically, AG1478 was dissolved in 100 μl of dimethylsulfoxide (DMSO, Sigma) to obtain a inhibitor solution 1. The mouse was injected with the inhibitor solution 1 so that it received the inhibitor at a dose of 30 mg/kg/day. The inhibitor solution 1 was injected for consecutive 7 days. 4557W was dissolved in DMSO to obtain an inhibitor solution 2. […]
On Day 1, the mice were injected with the inhibitor solutions. On Days 1, 3, 5, and 8, the tumor mass (mm^3) in mice was measured. The tumor mass was calculated from the longitudinal and transverse diameters of the tumor measured, assuming that the shape of the tumor is an oval sphere.
The tumor mass of the mouse injected with DMSO was measured in a similar manner. […]

Structure (SMILES) | proliferation of the tumor cell line (tumor cell line (A-431)) | RTK activity in the presence of the inhibitor (relative to control RTK activity) [1] | RTK activity in the presence of the inhibitor (relative to control RTK activity) [2] | RTK activity in the presence of the inhibitor (relative to control RTK activity) [3] | RTK activity in the presence of the inhibitor (relative to control RTK activity) [4] | VEGF secretion amount compared to the control value (BT-474 cells) | VEGF secretion amount compared to the control value (MDA-MB-468 cells) | increase in the tumor mass (MDA-MB-468 tumor)
COc1cc2ncnc(Nc3ccc(F)c(Cl)c3)c2cc1OCCCN1CCOCC1 [Iressa, gefitinib] | suppressed at the highest degree |  |  |  |  |  |  | 
COc1cc2ncnc(Nc3cccc(Br)c3)c2cc1OC [PD153035] |  | decreased | not decreased | decreased | not decreased | decreased | decreased | 
COc1cc2ncnc(Nc3cccc(Cl)c3)c2cc1OC [AG1478] |  | decreased | not decreased | decreased | not decreased | decreased | decreased | suppressed
COc1cc2ncnc(Nc3ccc(OCc4ccccc4)cc3)c2cc1OC [4557W] |  | decreased |  |  |  |  |  | suppressed
